Each structure is given as a SMILES string. Bounds are passed on as bounds.

Experiment [1] relates to lymphoma in NOD.Stat5bTg mice. In words: Lymphomagenesis in NOD.Stat5bTg mice. The conditions noted are these: 5 week-old NOD.Stat5bTg mice, three cycles of 3-week on and 3-week off. It counts as in vivo, mouse. From the text:
In several experiments, mice were monitored for tumors through physical examination. Mice showing sufficient signs of pain and suffering including thymic and cervical lymphoid enlargement were euthanized for a complete necropsy. Final diagnosis of disease was established by clinical, pathologic and FACS analysis. Images of H&E staining were visualized with an Axiophot I microscope (Carl Zeiss) equipped with a Plan Neofluar 40X objective (FIG. 1c). Images were captured with an Axiocam color CDD camera, and treated on a computer with Axiovision software (Carl Zeiss).
(§1) AG490 (30 mg/kg/day) and STAT5 inhibitor CNH (40 mg/kg/day) purchased from Calbiochem (La Jolla, Calif.) were injected intraperitoneally into F1 and NOD.Stat5b transgenic lines. Xanthohumol and apigenin (>98% purity by HPLC) purchased from Sigma (St. Louis, Mo.) were used in the chemoprevention experiments. Xanthohumol (100 mg/kg/day) and Apigenin (200 mg/kg/day) were injected alone or in combination intraperitoneally into NOD.Stat5b^Tg mice.
Since AG490 and STAT5b inhibitor CNH can inhibit STAT5 function and CD150 expression, they could delay lymphomagenesis. […] STAT5 inhibitors are potentially very effective in treating cancers with fewer unpleasant side effects. To test this possibility, CNH (40 mg/kg/day) was used to treat 5 week-old NOD.Stat5^Tg mice with three cycles of 3-week on and 3-week off.

In experiment [2] the test system is Ckmt2, Dgat2, Myl4, Csrp3, Nppa, Sln and Myh6. In words: Real-time RT-PCR of genes up-regulated in NOD.Stat5bTg mice. It counts as in vivo, mouse. To be noted: normalized with GAPDH, versus vehicle-treated NOD.Stat5bTg mice. The procedure: as §1
RNA was isolated from thymus using the miRACLE™ total RNA isolation kit (Jinfiniti Biosciences) or RNeasy® kit (QIAGEN) and used for microarray and real-time RT-PCR analyses. The Illumina's MouseRef-8 v2.0 Expression BeadChip was used for transcriptional analysis. This BeadChip targets approximately 25,600 well-annotated RefSeq transcripts, over 19,100 unique genes, and enables the interrogation of eight samples in parallel. Probe preparation and hybridization were carried out according to Manufacture's recommendation. The microarray data are MIAME compliant and have been deposited in NCBI Gene Expression Omnibus and are accessible through GEO Series accession number GSE31526.
Real-time PCR was carried out in 96-well PCR plates using the ABI Prism 7900HT real-time PCR instrument (Applied Biosystems, Roche). […] The fluorescent signal was measured at the end of the annealing/elongation step in each cycle.

Another experiment concerns CD8+ thymocytes. In words: Number of CD8+ thymocytes in treated NOD.Stat5bTg mice. It counts as in vivo, mouse. The conditions noted are these: treatment for 2 weeks. As to the method:
AG490 (30 mg/kg/day) and STAT5 inhibitor CNH (40 mg/kg/day) purchased from Calbiochem (La Jolla, Calif.) were injected intraperitoneally into F1 and NOD.Stat5b transgenic lines. Xanthohumol and apigenin (>98% purity by HPLC) purchased from Sigma (St. Louis, Mo.) were used in the chemoprevention experiments. Xanthohumol (100 mg/kg/day) and Apigenin (200 mg/kg/day) were injected alone or in combination intraperitoneally into NOD.Stat5b^Tg mice. Single-cell suspensions from thymus, spleen, lymph nodes and hollow fibers were stained and analyzed using a fluorescence-activated cell sorting (FACS) flow cytometer (BD Biosciences) with CELLQuest 3.3 software (Becton Dickinson, San Jose, Calif.). All antibodies were purchased from BD PharMingen (San Diego, Calif.) except anti-CD150-PE from Biolegend (San Diego, Calif.). For intracellular staining, cells were fixed and permeablized using Cytofix/Cytoperm solution (BD PharMingen), followed by P-Stat5 (pY694)-APC staining.

Experiment [3] concerns CD8+ lymphoma cells derived from F1.Stat5bTg mice. As to the kind of experiment: In vivo hollow fiber assay, lymphoma cells from F1.Stat5bTg mice. To be noted: hollow fiber assay (data not shown). On the set-up: species or system mouse.
The test system of the next experiment is phosphorylated STAT5. In words: STAT5 phosphorylation (p-STAT5) by Western blotting and FACS in treated NOD.Stat5bTg mice. It counts as in vivo, mouse. To be noted: for p-STAT5 expression in thymocytes: NOD.Stat5bTg mice, treatment for 2 weeks, Western analysis and FACS; for STAT5 activation (pSTAT5) in peripheral blood CD8+ T cells: 10-week old NOD.Stat5bTg mice treated for 2 weeks, FACS. As to the method:
as §1
(§2) Single-cell suspensions from thymus, spleen, lymph nodes and hollow fibers were stained and analyzed using a fluorescence-activated cell sorting (FACS) flow cytometer (BD Biosciences) with CELLQuest 3.3 software (Becton Dickinson, San Jose, Calif.). All antibodies were purchased from BD PharMingen (San Diego, Calif.) except anti-CD150-PE from Biolegend (San Diego, Calif.). For intracellular staining, cells were fixed and permeablized using Cytofix/Cytoperm solution (BD PharMingen), followed by P-Stat5 (pY694)-APC staining.
Whole cell extracts were prepared from thymus or spleens using RIPA lysis buffer (Santa Cruz) supplemented with protease inhibitors. Western blot analysis was carried out as reported (29) by probing the blots with rabbit anti-phospho-Stat5 (Tyr694), rabbit anti-Stat5 or mouse anti-β-actin (Santa Cruz biotechnology), washed, and incubated with a horseradish peroxidase-conjugated anti-rabbit or anti-mouse antibody (Santa Cruz biotechnology). Immunopositive bands were photographed (Versadoc; Bio-Rad) after blots were developed with an enhanced chemiluminescent substrate (Pierce Chemical Co).

In the next experiment the test system is CD150. As to the kind of experiment: CD150 expression by FACS in treated NOD.Stat5bTg mice. It counts as in vivo, mouse. To be noted: for CD150 expression on CD8+ thymocytes: NOD.Stat5bTg mice, treatment for 2 weeks, intraperitoneal; for CD150 expression in peripheral blood CD8+ T cells: 10-week old NOD.Stat5bTg mice treated for 2 weeks. As to the method: as §1, §2

Experiment [4] relates to Lymphoma cells from NOD.Stat5bTg mice. As to the kind of experiment: In vivo hollow fiber assay, lymphoma cells from NOD.Stat5bTg mice. To be noted: lymphoma cells from NOD.Stat5bTg mice in hollow fibers in nude mice, 4 days of daily treatment. On the set-up: species or system mouse. From the text: Cellmax implant membranes were purchased from Spectrum Laboratories Inc. (Rancho Dominguez, Calif.). Lymphoma cells from NOD.Stat5b^Tg mice were harvested, suspended in cold phosphate buffered saline (PBS) and introduced into a 15 cm length of hollow fiber. The fiber was heat-sealed at 20 mm intervals, and each segment was separated using a pair of scissors. Intraperitoneal implantation in methoxyflurane anesthetized 6 week-old nude mice were accomplished via a dorsal incision which allowed passage of the hollow fiber into abdomen. The abdominal wall is closed using skin staples. After 3 days of transplantation, mice with implants were treated daily with either AG490 (30 mg/kg/day) or CNH (40 mg/kg/day). Single cell suspensions were obtained after 4 days of treatment by cutting off the sealed ends of the fibers. Cells were then washed twice with PBS and further processed for flow cytometry.
Single-cell suspensions from thymus, spleen, lymph nodes and hollow fibers were stained and analyzed using a fluorescence-activated cell sorting (FACS) flow cytometer (BD Biosciences) with CELLQuest 3.3 software (Becton Dickinson, San Jose, Calif.). All antibodies were purchased from BD PharMingen (San Diego, Calif.) except anti-CD150-PE from Biolegend (San Diego, Calif.). […]

With `O=C(NN=Cc1coc2ccccc2c1=O)c1cccnc1` [CNH, chromone-based nicotinyl hydrazone], in experiment [1], the “age before which treated mice were free of lymphomas” value is no less than 27 weeks and the “percentage of treated mice that developed lymphoma by 30 weeks of age” value was 17%. Besides, the “expression of genes up-regulated in NOD.Stat5bTg mice (Ckmt2, Dgat2, Myl4, Csrp3, Nppa, Sln and Myh6) in thymocytes” value in experiment [2] is reported as “did not significantly down-regulate”. Also, the “number of CD8+ thymocytes” value with CD8+ thymocytes is on record as “significantly decreased”. Besides, in experiment [3], the “survival of CD8+ lymphoma cells” value is “did not alter”. Besides, in the experiment with phosphorylated STAT5, the “p-STAT5 expression in thymocytes” value is reported as “did not decrease”. In addition, in the experiment on CD150, the “CD150 expression on CD8+ thymocytes” value was “significantly decreased”. The “apoptosis of lymphoma cells (Annexin V)” value in experiment [4] was “significantly increased”.

On to `O=c1cc(-c2ccc(O)cc2)oc2cc(O)cc(O)c12` [Apigenin], for which, in the experiment with phosphorylated STAT5, the “STAT5 activation (pSTAT5) in peripheral blood CD8+ T cells” value was “significantly inhibit”. The “CD150 expression in peripheral blood CD8+ T cells” value with CD150 is on record as “significantly inhibit”.

On to `N#C/C(=C/c1ccc(O)c(O)c1)C(=O)NCc1ccccc1` [AG490], for which, in experiment [2], the “expression of genes up-regulated in NOD.Stat5bTg mice (Ckmt2, Dgat2, Myl4, Csrp3, Nppa, Sln and Myh6) in thymocytes” value is reported as “did not significantly down-regulate”. In addition, in the experiment with CD8+ thymocytes, the “number of CD8+ thymocytes” value is listed as “greatly decreased”. The “survival of CD8+ lymphoma cells” value in experiment [3] is on record as “did not alter”. Besides, the “p-STAT5 expression in thymocytes” value in the experiment with phosphorylated STAT5 is on record as “dramatic decrease”. The “CD150 expression on CD8+ thymocytes” value with CD150 is recorded as “inhibited”. Besides, in experiment [4], the “apoptosis of lymphoma cells (Annexin V)” value is listed as “significantly increased”.

With `COc1cc(O)c(CC=C(C)C)c(O)c1C(=O)/C=C/c1ccc(O)cc1` [Xanthohumol], the “STAT5 activation (pSTAT5) in peripheral blood CD8+ T cells” value in the experiment on phosphorylated STAT5 is “significantly inhibit”. The “CD150 expression in peripheral blood CD8+ T cells” value in the experiment on CD150 is recorded as “significantly inhibit”.

Values taken from patent US8816151B2, “Stat5b transgenic mice and methods of use thereof” (Georgia Health Sciences University Research Institute, Inc., priority 2012, dated 2014).
